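In this assay, cells in 96-well plates receive the compound at five concentrations for 48 hours. Endpoints are linearly interpolated between the surrounding concentrations. At the GI50, growth is halved. TGI is the concentration that stops growth completely.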

The source of these data is PubChem BioAssay (NCI).

Test systems include SK-OV-3 ovarian; M14 melanoma; SF-539 CNS; OVCAR-5 ovarian; NCI-H226 lung; MDA-MB-435; SNB-19 CNS; HS 578T breast; RXF 393 renal; A498 renal.
Assay in all cases: DTP human tumour cell line panel, 48 h

For `CC[C@H](C)C(=O)O[C@H]1C[C@H](O)C=C2C=C[C@H](C)[C@H](CC[C@@H](O)C[C@@H](O)CC(=O)O)[C@H]21`, the GI50 in the experiment with SK-OV-3 ovarian, in the experiment on M14 melanoma, with SF-539 CNS, in the experiment on OVCAR-5 ovarian, in the experiment on NCI-H226 lung and with MDA-MB-435 was > 100 µM in each case. Besides, the GI50 (usually the concentration that inhibits growth by half) in the experiment on SNB-19 CNS is > 100 µM; in the experiment on HS 578T breast it was > 100 µM; with RXF 393 renal it was > 100 µM; with A498 renal, 11.6 µM. For the same compound, the TGI with SK-OV-3 ovarian, in the experiment with M14 melanoma, with SF-539 CNS, with OVCAR-5 ovarian, in the experiment on NCI-H226 lung and with MDA-MB-435 was > 100 µM each time. Besides, the TGI in the experiment on SNB-19 CNS, in the experiment on HS 578T breast, with RXF 393 renal and in the experiment on A498 renal was > 100 µM each time.
